Test: Pharmacokinetic and distribution experiment (radioactivity in blood and excised organs after tail vein injection)
Assay type: in vivo
Details: ddy mice; for Adrenal gland/Blood ratio / Radioactivity Distribution, Blood / Radioactivity Distribution, Femur / Radioactivity Distribution, Heart / Radioactivity Distribution, Large intestine / Radioactivity Distribution, Lung / Radioactivity Distribution, Small intestine / Radioactivity Distribution, Spleen / Radioactivity Distribution, Stomach / Adrenal gland/Kidney ratio / Radioactivity Distribution, Adrenal gland / Radioactivity Distribution, Kidney / Radioactivity Distribution, Liver / Radioactivity Distribution, Pancreas / Adrenal gland/Liver ratio: tail vein injection; for Adrenal gland/Blood ratio / Radioactivity Distribution, Blood / Radioactivity Distribution, Femur / Radioactivity Distribution, Heart / Radioactivity Distribution, Large intestine / Radioactivity Distribution, Lung / Radioactivity Distribution, Small intestine / Radioactivity Distribution, Spleen / Radioactivity Distribution, Stomach: 14.8 kBq (4 μCi); for Adrenal gland/Kidney ratio / Radioactivity Distribution, Adrenal gland / Radioactivity Distribution, Kidney / Radioactivity Distribution, Liver / Radioactivity Distribution, Pancreas: 14.8 kBq
Method: (§1) The HPLC fraction of [^125I]PAY15 obtained in Example 3 was concentrated and then diluted with saline. The resulting solution was used in administration. 100 μL of the solution (18.5 kBq (0.5 μCi)) was injected to the tail vein of each of five ddy mice (6 weeks old). Five minutes later, each mouse was decapitated, and blood was collected. Then, organs (adrenal gland, pancreas, heart, lung, stomach, small intestine, large intestine, liver, spleen, kidney, and thyroid gland) were excised. After measurement of their weights, the radioactivities of blood and each excised organ were measured. Also, the point in time when each mouse was decapitated was changed to 5, 15, 30, 60, and 120 minutes later to perform similar operation.
The HPLC fraction of [^125I]PAY21 obtained in Example 6 was concentrated and then diluted with saline. The resulting solution was used in administration to perform the same operation as in Evaluation 1.
as §1, with “[^18F]PAY27 obtained” for “The HPLC fraction of [^125I]PAY15 obtained”, “Example 10” for “Example 3”, “was” for “was concentrated and then”, “solution (14.8” for “solution (18.5”, “kBq (4” for “kBq (0.5”, “and thigh bone)” for “and thyroid gland)”
as §1, with “[^18F]PAY54 obtained” for “The HPLC fraction of [^125I]PAY15 obtained”, “Example 13” for “Example 3”, “was” for “was concentrated and then”, “solution (14.8” for “solution (18.5”, “kBq (4” for “kBq (0.5”, “and thigh bone)” for “and thyroid gland)”

O=C1CCc2cc(-c3cncc(OCC[18F])c3)cc3c2N1CC3 [[^18F]PAY54, 8-(5-(2-[^18F]fluoroethyloxy)pyridin-3-yl)-1,2,5,6-tetrahydro-4H-pyrrolo[3,2,1-ij]quinolin-4-one]
radioactivity accumulation in the adrenal gland compared with blood and the kidney (5 minutes after administration): high radioactivity accumulation | Adrenal gland/Blood ratio (5 min): 1.55 ± 0.43 | Radioactivity Distribution, Blood (5 min): 4.5 ± 0.2 % dose/g | Radioactivity Distribution, Femur (5 min): 1.9 ± 0.2 % dose/g | Radioactivity Distribution, Heart (5 min): 4.5 ± 0.5 % dose/g | Radioactivity Distribution, Large intestine (5 min): 3.5 ± 0.3 % dose/g | Radioactivity Distribution, Lung (5 min): 4.6 ± 0.2 % dose/g | Radioactivity Distribution, Small intestine (5 min): 5.6 ± 0.3 % dose/g | Radioactivity Distribution, Spleen (5 min): 3.6 ± 0.2 % dose/g | Radioactivity Distribution, Stomach (5 min): 4.6 ± 1.5 % dose/g | Adrenal gland/Blood ratio (15 min): 0.86 ± 0.15 | Radioactivity Distribution, Blood (15 min): 4.5 ± 0.2 % dose/g | Radioactivity Distribution, Femur (15 min): 2.3 ± 0.1 % dose/g | Radioactivity Distribution, Heart (15 min): 3.8 ± 0.2 % dose/g | Radioactivity Distribution, Large intestine (15 min): 6.2 ± 0.5 % dose/g | Radioactivity Distribution, Lung (15 min): 3.7 ± 0.2 % dose/g | Radioactivity Distribution, Small intestine (15 min): 5.3 ± 0.6 % dose/g | Radioactivity Distribution, Spleen (15 min): 3.1 ± 0.2 % dose/g | Radioactivity Distribution, Stomach (15 min): 4.9 ± 0.4 % dose/g | Adrenal gland/Blood ratio (30 min): 0.82 ± 0.13 | Radioactivity Distribution, Blood (30 min): 4.3 ± 0.4 % dose/g | Radioactivity Distribution, Femur (30 min): 2.7 ± 0.3 % dose/g | Radioactivity Distribution, Heart (30 min): 3.7 ± 0.5 % dose/g | Radioactivity Distribution, Large intestine (30 min): 8.5 ± 0.5 % dose/g | Radioactivity Distribution, Lung (30 min): 3.4 ± 0.2 % dose/g | Radioactivity Distribution, Small intestine (30 min): 5.0 ± 0.9 % dose/g | Radioactivity Distribution, Spleen (30 min): 3.1 ± 0.1 % dose/g | Radioactivity Distribution, Stomach (30 min): 3.5 ± 0.2 % dose/g | Adrenal gland/Blood ratio (60 min): 1.16 ± 0.15 | Radioactivity Distribution, Blood (60 min): 3.5 ± 0.5 % dose/g | Radioactivity Distribution, Femur (60 min): 3.4 ± 0.7 % dose/g | Radioactivity Distribution, Heart (60 min): 2.9 ± 0.5 % dose/g | Radioactivity Distribution, Large intestine (60 min): 7.7 ± 1.2 % dose/g | Radioactivity Distribution, Lung (60 min): 2.9 ± 0.4 % dose/g | Radioactivity Distribution, Small intestine (60 min): 3.7 ± 0.7 % dose/g | Radioactivity Distribution, Spleen (60 min): 2.3 ± 0.6 % dose/g | Radioactivity Distribution, Stomach (60 min): 4.3 ± 0.3 % dose/g | Adrenal gland/Blood ratio (120 min): 0.61 ± 0.63 | Radioactivity Distribution, Blood (120 min): 2.8 ± 0.2 % dose/g | Radioactivity Distribution, Femur (120 min): 4.5 ± 0.1 % dose/g | Radioactivity Distribution, Heart (120 min): 2.4 ± 0.4 % dose/g | Radioactivity Distribution, Large intestine (120 min): 7.9 ± 0.7 % dose/g | Radioactivity Distribution, Lung (120 min): 2.2 ± 0.2 % dose/g | Radioactivity Distribution, Small intestine (120 min): 2.4 ± 0.1 % dose/g | Radioactivity Distribution, Spleen (120 min): 2.0 ± 0.2 % dose/g | Radioactivity Distribution, Stomach (120 min): 3.5 ± 0.6 % dose/g | Adrenal gland/Kidney ratio (5 min): 1.60 ± 0.50 | Radioactivity Distribution, Adrenal gland (5 min): 7.0 ± 2.1 % dose/g | Radioactivity Distribution, Kidney (5 min): 4.4 ± 0.5 % dose/g | Radioactivity Distribution, Liver (5 min): 7.5 ± 0.5 % dose/g | Radioactivity Distribution, Pancreas (5 min): 3.4 ± 0.3 % dose/g | Adrenal gland/Kidney ratio (15 min): 1.11 ± 0.15 | Radioactivity Distribution, Adrenal gland (15 min): 3.9 ± 0.8 % dose/g | Radioactivity Distribution, Kidney (15 min): 3.5 ± 0.6 % dose/g | Radioactivity Distribution, Liver (15 min): 6.0 ± 0.4 % dose/g | Radioactivity Distribution, Pancreas (15 min): 2.7 ± 0.2 % dose/g | Adrenal gland/Kidney ratio (30 min): 0.98 ± 0.15 | Radioactivity Distribution, Adrenal gland (30 min): 3.5 ± 0.4 % dose/g | Radioactivity Distribution, Kidney (30 min): 3.6 ± 0.4 % dose/g | Radioactivity Distribution, Liver (30 min): 5.7 ± 0.6 % dose/g | Radioactivity Distribution, Pancreas (30 min): 2.6 ± 0.2 % dose/g | Adrenal gland/Kidney ratio (60 min): 1.40 ± 0.34 | Radioactivity Distribution, Adrenal gland (60 min): 4.1 ± 1.0 % dose/g | Radioactivity Distribution, Kidney (60 min): 3.0 ± 0.3 % dose/g | Radioactivity Distribution, Liver (60 min): 5.0 ± 0.3 % dose/g | Radioactivity Distribution, Pancreas (60 min): 2.4 ± 0.4 % dose/g | Adrenal gland/Kidney ratio (120 min): 0.58 ± 0.54 | Radioactivity Distribution, Adrenal gland (120 min): 2.0 ± 1.5 % dose/g | Radioactivity Distribution, Kidney (120 min): 2.8 ± 0.4 % dose/g | Radioactivity Distribution, Liver (120 min): 4.7 ± 0.6 % dose/g | Radioactivity Distribution, Pancreas (120 min): 1.7 ± 0.2 % dose/g | Adrenal gland/Liver ratio (5 min): 0.95 ± 0.34 | Adrenal gland/Liver ratio (15 min): 0.64 ± 0.13 | Adrenal gland/Liver ratio (30 min): 0.61 ± 0.12 | Adrenal gland/Liver ratio (60 min): 0.82 ± 0.19 | Adrenal gland/Liver ratio (120 min): 0.38 ± 0.41

— US20140187784A1, “RADIOACTIVE QUINOLINONE DERIVATIVE AND PHARMACEUTICAL DRUG COMPRISING THE SAME” (Nihon Medi-Physics Co., Ltd., priority 2012, published 2014)
